Data from ChEMBL document CHEMBL1201862, “PubChem BioAssay data set” (2004).
Activity calls are given as the source filed them.

Assays:
Assay type in all cases: functional
[1] = biological target: T1, Rac GTPase-activating protein 1 (Homo sapiens, UniProt Q9H0H5); assay: MgcRacGAP GTPase-activating activity inhibitors, confirmation, biochemical, ADP Hunter fluorescence, primary and confirmatory (AID 624330)
T1 sequence (Q9H0H5 whole entry): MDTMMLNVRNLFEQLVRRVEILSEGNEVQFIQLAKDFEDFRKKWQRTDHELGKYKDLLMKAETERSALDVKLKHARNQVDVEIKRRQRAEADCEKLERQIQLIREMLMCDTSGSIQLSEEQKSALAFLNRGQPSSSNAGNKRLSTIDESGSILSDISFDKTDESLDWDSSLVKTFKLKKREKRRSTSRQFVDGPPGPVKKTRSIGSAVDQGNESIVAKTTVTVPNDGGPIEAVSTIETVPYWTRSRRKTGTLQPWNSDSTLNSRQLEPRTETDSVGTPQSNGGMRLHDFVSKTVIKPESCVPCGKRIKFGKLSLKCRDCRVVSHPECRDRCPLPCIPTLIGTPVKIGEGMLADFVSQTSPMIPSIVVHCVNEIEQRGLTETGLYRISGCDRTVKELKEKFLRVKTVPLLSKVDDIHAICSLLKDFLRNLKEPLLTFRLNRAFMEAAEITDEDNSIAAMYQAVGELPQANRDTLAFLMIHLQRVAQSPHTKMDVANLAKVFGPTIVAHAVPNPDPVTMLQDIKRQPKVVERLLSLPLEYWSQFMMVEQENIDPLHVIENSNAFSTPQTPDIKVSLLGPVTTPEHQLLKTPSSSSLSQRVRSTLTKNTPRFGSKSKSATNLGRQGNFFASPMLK

[2] = biological target: T2, Sentrin-specific protease 8 (Homo sapiens, UniProt Q96LD8);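 further: luminescence read-out of SENP8 inhibition, dose-response confirmation following an ultra-high-throughput screen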
T2 sequence (Q96LD8 whole entry): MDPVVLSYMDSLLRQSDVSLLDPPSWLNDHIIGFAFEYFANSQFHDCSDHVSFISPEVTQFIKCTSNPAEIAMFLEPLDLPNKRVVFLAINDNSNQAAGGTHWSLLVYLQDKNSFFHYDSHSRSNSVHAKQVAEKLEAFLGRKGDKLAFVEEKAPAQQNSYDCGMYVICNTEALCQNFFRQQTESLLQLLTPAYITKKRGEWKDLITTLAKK

[3] = biological target: BDNF/NT-3 growth factors receptor (Homo sapiens, UniProt Q16620);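 further: NTRK2 measured as one member of a broad kinome-wide kinase profiling panel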
[4] = biological target: Serine/threonine-protein kinase pim-1 (Homo sapiens, UniProt P11309)
[5] = biological target: Macrophage colony-stimulating factor 1 receptor (Homo sapiens, UniProt P07333);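 further: value comes from the Navigating the Kinome screening panel, CSF1R member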
[6] = biological target: Death-associated protein kinase 3 (Homo sapiens, UniProt O43293);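 further: measured as one member of a kinome-wide profiling panel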
[7] = biological target: Platelet-derived growth factor receptor alpha (Homo sapiens, UniProt P16234); assay: Navigating the Kinome. Panel member name: PDGFRA
[8] = biological target: Mitogen-activated protein kinase kinase kinase kinase 4 (Homo sapiens, UniProt O95819)
[9] = biological target: 5'-AMP-activated protein kinase catalytic subunit alpha-1 (Homo sapiens, UniProt Q13131)
[10] = biological target: Cyclin-dependent kinase 5 (Homo sapiens, UniProt Q00535);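 further: CDK5 measured as one member of a kinase profiling panel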
Aurora kinase B = Aurora kinase B (Homo sapiens, UniProt Q96GD4)
[11] = biological target: T3, Inhibitor of nuclear factor kappa-B kinase subunit epsilon (Homo sapiens, UniProt Q14164); assay: Navigating the Kinome. Panel member name: IKBKE
T3 sequence (Q14164 whole entry): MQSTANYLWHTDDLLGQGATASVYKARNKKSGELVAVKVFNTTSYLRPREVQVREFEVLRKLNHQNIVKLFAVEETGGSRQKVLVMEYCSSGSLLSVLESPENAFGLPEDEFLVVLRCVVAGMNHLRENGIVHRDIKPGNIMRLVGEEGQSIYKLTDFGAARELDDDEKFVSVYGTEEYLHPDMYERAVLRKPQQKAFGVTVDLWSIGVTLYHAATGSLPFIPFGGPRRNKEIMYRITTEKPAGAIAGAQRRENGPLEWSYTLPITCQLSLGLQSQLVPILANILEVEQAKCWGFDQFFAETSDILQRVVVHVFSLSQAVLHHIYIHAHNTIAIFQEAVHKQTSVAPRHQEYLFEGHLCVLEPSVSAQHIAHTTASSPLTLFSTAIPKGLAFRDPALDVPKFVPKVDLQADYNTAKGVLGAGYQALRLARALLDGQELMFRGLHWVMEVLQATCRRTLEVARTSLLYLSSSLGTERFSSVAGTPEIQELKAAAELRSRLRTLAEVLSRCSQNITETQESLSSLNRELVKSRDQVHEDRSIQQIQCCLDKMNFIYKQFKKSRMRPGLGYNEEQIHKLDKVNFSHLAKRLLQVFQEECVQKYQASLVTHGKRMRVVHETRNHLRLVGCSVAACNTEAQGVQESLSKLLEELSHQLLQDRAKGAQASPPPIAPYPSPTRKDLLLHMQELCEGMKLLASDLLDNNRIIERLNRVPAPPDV

[12] = biological target: ALK tyrosine kinase receptor (Homo sapiens, UniProt Q9UM73);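 further: ALK tested as one member of a kinase panel screen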
ALK tyrosine kinase receptor, sequence (Q9UM73 whole entry): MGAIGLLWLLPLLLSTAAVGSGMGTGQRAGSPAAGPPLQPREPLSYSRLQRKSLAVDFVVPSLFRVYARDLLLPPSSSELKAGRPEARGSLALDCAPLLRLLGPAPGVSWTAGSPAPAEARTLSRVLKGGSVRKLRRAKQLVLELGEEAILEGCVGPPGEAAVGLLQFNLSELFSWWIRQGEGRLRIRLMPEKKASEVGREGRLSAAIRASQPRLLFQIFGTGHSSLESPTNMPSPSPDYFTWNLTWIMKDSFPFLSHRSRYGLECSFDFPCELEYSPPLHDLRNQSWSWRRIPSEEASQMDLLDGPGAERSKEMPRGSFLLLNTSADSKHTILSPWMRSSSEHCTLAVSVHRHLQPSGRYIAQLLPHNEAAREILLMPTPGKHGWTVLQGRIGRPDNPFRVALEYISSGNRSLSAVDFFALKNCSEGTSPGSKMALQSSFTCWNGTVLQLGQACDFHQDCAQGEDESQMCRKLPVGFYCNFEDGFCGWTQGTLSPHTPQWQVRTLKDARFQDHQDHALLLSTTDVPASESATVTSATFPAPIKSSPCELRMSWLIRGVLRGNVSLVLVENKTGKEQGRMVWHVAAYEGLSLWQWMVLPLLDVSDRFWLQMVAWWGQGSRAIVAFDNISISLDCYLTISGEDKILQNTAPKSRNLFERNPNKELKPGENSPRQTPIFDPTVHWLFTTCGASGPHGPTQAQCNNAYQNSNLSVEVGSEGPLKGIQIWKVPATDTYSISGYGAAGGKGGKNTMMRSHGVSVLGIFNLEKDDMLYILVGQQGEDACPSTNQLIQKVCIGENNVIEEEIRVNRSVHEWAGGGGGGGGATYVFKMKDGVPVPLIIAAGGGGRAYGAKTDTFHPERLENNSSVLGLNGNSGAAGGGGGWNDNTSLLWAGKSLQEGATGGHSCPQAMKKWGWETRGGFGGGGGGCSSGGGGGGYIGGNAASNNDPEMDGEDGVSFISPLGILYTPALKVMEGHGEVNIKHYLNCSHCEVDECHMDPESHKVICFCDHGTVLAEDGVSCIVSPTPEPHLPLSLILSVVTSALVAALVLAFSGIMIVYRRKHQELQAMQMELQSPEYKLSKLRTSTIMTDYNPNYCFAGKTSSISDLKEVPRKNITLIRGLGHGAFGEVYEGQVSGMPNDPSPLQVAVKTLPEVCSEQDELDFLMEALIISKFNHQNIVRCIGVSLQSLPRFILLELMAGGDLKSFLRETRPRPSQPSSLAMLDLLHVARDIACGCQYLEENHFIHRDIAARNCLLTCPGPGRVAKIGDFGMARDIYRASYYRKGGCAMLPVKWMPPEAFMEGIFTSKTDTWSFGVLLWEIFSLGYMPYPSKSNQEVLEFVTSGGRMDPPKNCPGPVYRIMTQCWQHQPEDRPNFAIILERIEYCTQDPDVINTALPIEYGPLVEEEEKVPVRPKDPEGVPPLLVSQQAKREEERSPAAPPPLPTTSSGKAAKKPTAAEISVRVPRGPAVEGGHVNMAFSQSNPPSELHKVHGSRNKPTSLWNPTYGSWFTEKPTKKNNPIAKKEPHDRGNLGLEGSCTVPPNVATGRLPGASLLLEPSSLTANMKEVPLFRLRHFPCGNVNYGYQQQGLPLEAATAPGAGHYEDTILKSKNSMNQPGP

Platelet-derived growth factor receptor alpha, sequence (P16234 whole entry): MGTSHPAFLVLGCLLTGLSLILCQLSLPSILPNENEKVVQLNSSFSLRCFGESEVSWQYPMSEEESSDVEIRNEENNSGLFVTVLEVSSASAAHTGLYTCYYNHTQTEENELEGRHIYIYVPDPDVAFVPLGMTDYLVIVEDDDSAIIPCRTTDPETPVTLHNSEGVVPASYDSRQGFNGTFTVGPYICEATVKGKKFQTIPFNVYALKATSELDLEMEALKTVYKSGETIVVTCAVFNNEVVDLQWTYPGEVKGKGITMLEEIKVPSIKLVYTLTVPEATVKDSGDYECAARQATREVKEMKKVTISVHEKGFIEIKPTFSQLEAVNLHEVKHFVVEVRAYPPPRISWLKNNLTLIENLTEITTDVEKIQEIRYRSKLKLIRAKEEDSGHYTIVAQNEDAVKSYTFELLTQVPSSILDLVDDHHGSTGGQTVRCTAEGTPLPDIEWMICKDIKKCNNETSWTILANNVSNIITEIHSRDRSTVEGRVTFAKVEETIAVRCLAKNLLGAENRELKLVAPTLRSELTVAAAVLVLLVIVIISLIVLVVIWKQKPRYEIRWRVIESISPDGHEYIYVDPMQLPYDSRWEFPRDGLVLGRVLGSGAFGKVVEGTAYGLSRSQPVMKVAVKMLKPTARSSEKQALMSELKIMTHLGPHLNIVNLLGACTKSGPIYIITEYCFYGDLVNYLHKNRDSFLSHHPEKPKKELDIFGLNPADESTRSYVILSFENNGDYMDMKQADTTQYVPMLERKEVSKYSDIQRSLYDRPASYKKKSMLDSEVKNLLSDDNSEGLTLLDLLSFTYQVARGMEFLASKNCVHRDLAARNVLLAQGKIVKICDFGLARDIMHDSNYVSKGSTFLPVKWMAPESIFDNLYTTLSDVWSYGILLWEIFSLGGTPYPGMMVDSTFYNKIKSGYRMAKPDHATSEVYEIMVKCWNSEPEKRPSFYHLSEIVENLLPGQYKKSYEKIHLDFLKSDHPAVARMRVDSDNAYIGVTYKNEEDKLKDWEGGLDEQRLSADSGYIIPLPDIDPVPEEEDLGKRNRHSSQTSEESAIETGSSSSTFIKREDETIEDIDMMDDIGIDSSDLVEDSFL
Aurora kinase B, sequence (Q96GD4 whole entry): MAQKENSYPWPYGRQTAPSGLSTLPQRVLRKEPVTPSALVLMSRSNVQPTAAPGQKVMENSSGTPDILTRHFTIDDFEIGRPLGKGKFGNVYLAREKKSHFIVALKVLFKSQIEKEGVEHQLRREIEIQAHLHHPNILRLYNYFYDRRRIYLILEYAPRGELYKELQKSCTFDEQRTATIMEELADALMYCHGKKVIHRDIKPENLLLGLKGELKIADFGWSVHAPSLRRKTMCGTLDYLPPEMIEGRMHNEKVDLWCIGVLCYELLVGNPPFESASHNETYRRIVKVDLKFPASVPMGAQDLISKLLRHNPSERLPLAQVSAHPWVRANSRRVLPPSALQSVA
5'-AMP-activated protein kinase catalytic subunit alpha-1, sequence (Q13131 whole entry): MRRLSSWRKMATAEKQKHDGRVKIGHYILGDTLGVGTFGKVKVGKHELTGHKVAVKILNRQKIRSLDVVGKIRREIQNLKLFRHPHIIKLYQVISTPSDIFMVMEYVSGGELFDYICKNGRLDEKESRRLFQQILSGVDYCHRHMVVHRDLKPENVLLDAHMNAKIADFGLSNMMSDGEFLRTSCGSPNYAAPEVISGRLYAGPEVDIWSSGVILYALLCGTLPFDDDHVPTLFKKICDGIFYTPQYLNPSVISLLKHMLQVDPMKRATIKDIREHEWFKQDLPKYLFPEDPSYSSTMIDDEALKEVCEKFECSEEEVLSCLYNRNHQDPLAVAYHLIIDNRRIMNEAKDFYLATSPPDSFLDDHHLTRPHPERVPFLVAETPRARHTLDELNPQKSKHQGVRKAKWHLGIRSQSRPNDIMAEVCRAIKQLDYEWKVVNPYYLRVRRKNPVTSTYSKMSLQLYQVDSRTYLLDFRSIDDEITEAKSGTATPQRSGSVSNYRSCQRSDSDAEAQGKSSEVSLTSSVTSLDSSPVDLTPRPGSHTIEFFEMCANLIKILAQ
BDNF/NT-3 growth factors receptor, sequence (Q16620 whole entry): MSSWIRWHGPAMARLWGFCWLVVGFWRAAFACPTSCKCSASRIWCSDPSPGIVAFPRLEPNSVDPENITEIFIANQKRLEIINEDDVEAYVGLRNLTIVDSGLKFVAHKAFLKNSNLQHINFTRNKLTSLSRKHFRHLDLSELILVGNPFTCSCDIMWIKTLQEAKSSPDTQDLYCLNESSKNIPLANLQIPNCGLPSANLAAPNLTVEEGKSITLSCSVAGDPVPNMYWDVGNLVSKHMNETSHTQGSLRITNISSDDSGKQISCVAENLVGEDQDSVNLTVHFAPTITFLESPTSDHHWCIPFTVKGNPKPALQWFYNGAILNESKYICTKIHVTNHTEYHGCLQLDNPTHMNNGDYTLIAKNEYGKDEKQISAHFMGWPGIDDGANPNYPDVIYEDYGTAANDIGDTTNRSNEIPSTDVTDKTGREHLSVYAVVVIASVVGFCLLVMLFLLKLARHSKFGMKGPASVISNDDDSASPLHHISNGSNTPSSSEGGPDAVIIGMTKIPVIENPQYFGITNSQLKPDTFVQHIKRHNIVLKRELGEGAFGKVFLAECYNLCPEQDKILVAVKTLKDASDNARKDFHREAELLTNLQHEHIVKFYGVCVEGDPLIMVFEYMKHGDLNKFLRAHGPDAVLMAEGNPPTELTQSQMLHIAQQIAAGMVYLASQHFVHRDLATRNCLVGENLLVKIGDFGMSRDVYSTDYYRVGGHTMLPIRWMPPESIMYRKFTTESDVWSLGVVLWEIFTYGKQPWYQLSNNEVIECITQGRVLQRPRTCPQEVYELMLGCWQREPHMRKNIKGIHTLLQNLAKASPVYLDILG
Cyclin-dependent kinase 5, sequence (Q00535 whole entry): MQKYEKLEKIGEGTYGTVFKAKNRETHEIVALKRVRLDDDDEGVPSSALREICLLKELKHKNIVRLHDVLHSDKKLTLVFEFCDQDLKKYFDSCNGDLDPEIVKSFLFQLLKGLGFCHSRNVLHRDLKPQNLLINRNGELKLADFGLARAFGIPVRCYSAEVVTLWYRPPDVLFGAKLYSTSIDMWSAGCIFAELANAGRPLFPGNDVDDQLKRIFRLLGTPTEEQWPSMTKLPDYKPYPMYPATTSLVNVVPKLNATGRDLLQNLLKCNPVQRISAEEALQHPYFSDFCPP
Serine/threonine-protein kinase pim-1, sequence (P11309 whole entry): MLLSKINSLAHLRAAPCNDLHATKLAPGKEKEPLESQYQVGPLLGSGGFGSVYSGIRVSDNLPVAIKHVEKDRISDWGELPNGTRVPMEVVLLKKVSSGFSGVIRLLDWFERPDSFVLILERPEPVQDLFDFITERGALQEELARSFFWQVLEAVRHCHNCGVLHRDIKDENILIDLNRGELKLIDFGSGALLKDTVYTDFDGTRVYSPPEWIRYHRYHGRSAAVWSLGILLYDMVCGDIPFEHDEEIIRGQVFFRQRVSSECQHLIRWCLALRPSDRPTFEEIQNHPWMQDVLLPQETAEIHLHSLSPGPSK

Row | Ki [3] | Ki [4] | Ki [5] | Ki [7] | Ki [8] | Ki [9] | Ki [10] | Ki (Aurora kinase B) | Ki [11] | Ki [12] | SMILES | IC50 [1] | IC50 [2] | Ki [6]
1 | – | – | – | – | – | – | – | – | – | – | CCN(CC)CCOc1ccc2c(c1)C(=NNC(=O)c1ccccn1)c1cc(OCCN(CC)CC)ccc1-2 | 31300 nM (active) | – | –
2 | – | – | – | – | – | – | – | – | – | – | O=C(NC1=C(Nc2ccc(F)cc2)C(=O)c2ccccc2C1=O)c1ccc(Cl)cc1 | – | 10200 nM (active) | –
3 | – | – | – | – | – | – | – | – | – | – | O=C(O)c1ccc2c(c1)[C@@H]1C=CC[C@@H]1[C@H](c1ccccn1)N2 | 360000 nM (active) | – | –
4 | – | – | – | – | – | – | – | – | – | – | COc1cc2cc(NC(C)=O)cc(NCc3ccccc3)c2cc1OC | 49600 nM (active) | – | –
5 | – | – | – | – | – | – | – | – | – | – | Oc1nc(Nc2ccc(F)cc2)cc2ccccc12 | – | 6030 nM (active) | –
6 | – | – | – | – | – | – | – | – | – | – | CN(C)c1cc(N/N=C\c2ccccc2)nc(N(C)C)n1 | – | 18800 nM (active) | –
7 | 631 nM (active) | 251 nM (active) | 1260 nM (active) | 501 nM (active) | 20 nM (active) | 158 nM (active) | > 3160 nM (inactive) | 20 nM (active) | > 3160 nM (inactive) | 12.6 nM (active) | O=C1Nc2cc(-c3ccc(O)cc3)ccc2C1=Cc1ccc[nH]1 | – | – | 7.94 nM (active)
8 | 5.01 nM (active) | 631 nM (active) | 631 nM (active) | 126 nM (active) | 5.01 nM (active) | 3.16 nM (active) | 0.631 nM (active) | 39.8 nM (active) | 20 nM (active) | 200 nM (active) | NC(COc1cncc(-c2ccc3c(c2)C(=Cc2ccc[nH]2)C(=O)N3)c1)Cc1ccccc1 (centres undefined) | – | – | 5.01 nM (active)
9 | 100000 nM (active) | 50100 nM (active) | 63100 nM (active) | 39800 nM (active) | 79400 nM (active) | 50100 nM (active) | 25100 nM (active) | 31600 nM (active) | 100000 nM (active) | 63100 nM (active) | O=C1Cc2cc(-c3ccccc3)cnc2N1 | – | – | 39800 nM (active)
